Structures can show the parent of a compound that is named as a salt. Where two headings read alike, the source gives them in different places.
How the values were obtained:
OVCAR-4 = assay: Cell viability of OVCAR-4 cells after treatment with test compound; assay type: cell-based
SKOV-3 cancer cell lines = assay: Cell viability of SKOV-3 cancer cell lines after treatment with test compound; assay type: cell-based
Procedure: […] Cell viability is evaluated following treatment with a compound as disclosed in Table B. Viability of cancer cells following treatment is indicated according to the following legend:

[1] = Homo sapiens, SK-OV-3, SKOV-3 cancer cells

## CN[C@@H](C)C(=O)N[C@H]1CCS[C@H]2CC(C)(C)[C@@H](C(=O)N[C@@H]3CCOc4ccccc43)N2C1=O [Compound 1, (4S,7S)—N—((R)-chroman-4-yl)-8,8-dimethyl-4-((S)-2-(methylamino)propanamido)-5-oxooctahydropyrrolo[2,1-b][1,3]thiazepine-7-carboxamide hydrochloride]
OVCAR-4; Homo sapiens
  IC50: 10 to 100 nM
SKOV-3 cancer cell lines; [1]
  IC50: 1 to 10 nM

## CN[C@@H](C)C(=O)N[C@H]1CCS[C@H]2CC(C)(C)[C@@H](C(=O)N[C@@H]3CCSc4ccccc43)N2C1=O [Compound 2, (4S,7S)-8,8-dimethyl-4-((S)-2-(methylamino)propanamido)-5-oxo-N—((R)-thiochroman-4-yl)octahydropyrrolo[2,1-b][1,3]thiazepine-7-carboxamide hydrochloride]
OVCAR-4; Homo sapiens
  IC50: 100 to 1000 nM
SKOV-3 cancer cell lines; [1]
  IC50: 1 to 10 nM

## CN[C@@H](C)C(=O)N[C@H]1CCS[C@H]2CC3(CC=CC3)[C@@H](C(=O)N[C@@H]3CCOc4ccccc43)N2C1=O [Compound 3, (4′S,7′S,9a'S)-4′-((S)-2-(chloro(methyl)-15-azaneyl)propanamido)-N—((R)-chroman-4-yl)-5′-oxo-2′,3′,4′,5′,9′,9a′-hexahydro-7′H-spiro[cyclopentane-1,8′-pyrrolo[2,1-b][1,3]thiazepin]-3-ene-7′-carboxamide]
OVCAR-4; Homo sapiens
  IC50: 10 to 100 nM
SKOV-3 cancer cell lines; [1]
  IC50: 1 to 10 nM

## CN[C@@H](C)C(=O)N[C@H]1CCS[C@H]2CC3(CC=CC3)[C@@H](C(=O)N[C@@H]3CCSc4ccccc43)N2C1=O [Compound 4, (4′S,7′S,9a'S)-4′-((S)-2-(chloro(methyl)-15-azaneyl)propanamido)-5′-oxo-N—((R)-thiochroman-4-yl)-2′,3′,4′,5′,9′,9a′-hexahydro-7′H-spiro[cyclopentane-1,8′-pyrrolo[2,1-b][1,3]thiazepin]-3-ene-7′-carboxamide]
OVCAR-4; Homo sapiens
  IC50: 100 to 1000 nM
SKOV-3 cancer cell lines; [1]
  IC50: 1 to 10 nM

## CN[C@@H](C)C(=O)N[C@H]1CCS[C@H]2CC3(CCCC3)[C@@H](C(=O)N[C@@H]3CCOc4ccccc43)N2C1=O [Compound 5, (4′S,7′S,9a'S)-4′-((S)-2-(chloro(methyl)-15-azaneyl)propanamido)-N-(chroman-4-yl)-5′-oxohexahydro-7′H-spiro[cyclopentane-1,8′-pyrrolo[2,1-b][1,3]thiazepine]-7′-carboxamide]
OVCAR-4; Homo sapiens
  IC50: 10 to 100 nM
SKOV-3 cancer cell lines; [1]
  IC50: 1 to 10 nM

## CN[C@@H](C)C(=O)N[C@H]1CCS[C@H]2CC3(CCCC3)[C@@H](C(=O)N[C@@H]3CCSc4ccccc43)N2C1=O [Compound 6, (4′S,7′S,9a'S)-4′-((S)-2-(chloro(methyl)-15-azaneyl)propanamido)-5′-oxo-N—((R)-thiochroman-4-yl)hexahydro-7′H-spiro[cyclopentane-1,8′-pyrrolo[2,1-b][1,3]thiazepine]-7′-carboxamide]
OVCAR-4; Homo sapiens
  IC50: 100 to 1000 nM
SKOV-3 cancer cell lines; [1]
  IC50: 1 to 10 nM

## CN[C@@H](C)NC(=O)N[C@H]1CCSC2CC(C)(C)[C@@H](C(=O)N[C@@H]3CCOc4ccccc43)N2C1=O (stereo partly drawn) [Compound 7, (4S,7S)—N—((R)-chroman-4-yl)-8,8-dimethyl-4-(3-((R)-1-(methylamino)ethyl)ureido)-5-oxooctahydropyrrolo[2,1-b][1,3]thiazepine-7-carboxamide hydrochloride]
OVCAR-4; Homo sapiens
  IC50: > 1000 nM
SKOV-3 cancer cell lines; [1]
  IC50: > 1000 nM

## CC[C@H](NC)C(=O)N[C@H]1CCSC2CC(C)(C)[C@@H](C(=O)N[C@@H]3CCOc4ccccc43)N2C1=O (stereo partly drawn) [Compound 8, (4S,7S)—N—((R)-chroman-4-yl)-8,8-dimethyl-4-((S)-2-(methylamino)butanamido)-5-oxooctahydropyrrolo[2,1-b][1,3]thiazepine-7-carboxamide hydrochloride]
OVCAR-4; Homo sapiens
  IC50: 10 to 100 nM
SKOV-3 cancer cell lines; [1]
  IC50: 1 to 10 nM

## CN[C@@H](C)C(=O)N[C@H]1CCO[C@H]2CC3(CCCC3)[C@@H](C(=O)N[C@@H]3CCOc4ccccc43)N2C1=O [Compound 9, (4′S,7′S,9a'S)-4′-((S)-2-(chloro(methyl)-16-azaneyl)propanamido)-N-(chroman-4-yl)-5′-oxohexahydro-7′H-spiro[cyclopentane-1,8′-pyrrolo[2,1-b][1,3]oxazepine]-7′-carboxamide]
OVCAR-4; Homo sapiens
  IC50: 100 to 1000 nM
SKOV-3 cancer cell lines; [1]
  IC50: 1 to 10 nM

## CC[C@H](NC)C(=O)N[C@H]1CCO[C@H]2CC3(CCCC3)[C@@H](C(=O)N[C@@H]3CCOc4ccccc43)N2C1=O [Compound 10, (4′S,7′S,9a'S)-4′-((S)-2-(chloro(methyl)-16-azaneyl)butanamido)-N-(chroman-4-yl)-5′-oxohexahydro-7′H-spiro[cyclopentane-1,8′-pyrrolo[2,1-b][1,3]oxazepine]-7′-carboxamide]
OVCAR-4; Homo sapiens
  IC50: 100 to 1000 nM
SKOV-3 cancer cell lines; [1]
  IC50: 1 to 10 nM

## CN[C@@H](C)C(=O)N[C@H]1CCS[C@H]2CC3(CC=CC3)[C@@H](C(=O)N[C@@H]3CCCc4ccccc43)N2C1=O [Compound 11, (4′S,7′S,9a'S)-4′-((S)-2-(chloro(methyl)-15-azaneyl)propanamido)-5′-oxo-N-(1,2,3,4-tetrahydronaphthalen-1-yl)-2′,3′,4′,5′,9′,9a′-hexahydro-7′H-spiro[cyclopentane-1,8′-pyrrolo[2,1-b][1,3]thiazepin]-3-ene-7′-carboxamide]
OVCAR-4; Homo sapiens
  IC50: 10 to 100 nM
SKOV-3 cancer cell lines; [1]
  IC50: 1 to 10 nM

## CN[C@@H](C)C(=O)N[C@H]1CCO[C@H]2CC3(CC=CC3)[C@@H](C(=O)N[C@H]3CCOc4ccccc43)N2C1=O [Compound 12, (4′S,7′S,9a'S)-4′-((S)-2-(chloro(methyl)-15-azaneyl)propanamido)-N—((S)-chroman-4-yl)-5′-oxo-2′,3′,4′,5′,9′,9a′-hexahydro-7′H-spiro[cyclopentane-1,8′-pyrrolo[2,1-b][1,3]oxazepin]-3-ene-7′-carboxamide]
OVCAR-4
  IC50: > 1000 nM
SKOV-3 cancer cell lines; SKOV-3 cancer cells
  IC50: 100 to 1000 nM

## CC[C@H](NC)C(=O)N[C@H]1CCO[C@H]2CC3(CC=CC3)[C@@H](C(=O)N[C@@H]3CCOc4ccccc43)N2C1=O [Compound 13, (4′S,7′S,9a'S)-4′-((S)-2-(chloro(methyl)-16-azaneyl)butanamido)-N—((S)-chroman-4-yl)-5′-oxo-2′,3′,4′,5′,9′,9a′-hexahydro-7′H-spiro[cyclopentane-1,8′-pyrrolo[2,1-b][1,3]oxazepin]-3-ene-7′-carboxamide]
OVCAR-4; Homo sapiens
  IC50: 100 to 1000 nM
SKOV-3 cancer cell lines; [1]
  IC50: 1 to 10 nM
